The values below come from patent publication US12673944B2, “Compounds having inhibitory activity against glucosylceramide synthase or pharmaceutically acceptable salt thereof, processes for preparing the same, and pharmaceutical compositions comprising the same” (YUHAN CORPORATION, priority 2019, dated 2026).

The subject of test [1] is GM1 production in Jurkat cells. The test is described as follows: cells. It counts as cell-based. The note with it: Homo sapiens, Jurkat, 72 h.
Test [2] deals with T1, glucosylceramide synthase (GCS) (Homo sapiens, UniProt Q16739).
T1 construct: The obtained supernatant was used; host or cells: A549 cells (lysate supernatant after sonication)
T1 sequence (Q16739 1-394): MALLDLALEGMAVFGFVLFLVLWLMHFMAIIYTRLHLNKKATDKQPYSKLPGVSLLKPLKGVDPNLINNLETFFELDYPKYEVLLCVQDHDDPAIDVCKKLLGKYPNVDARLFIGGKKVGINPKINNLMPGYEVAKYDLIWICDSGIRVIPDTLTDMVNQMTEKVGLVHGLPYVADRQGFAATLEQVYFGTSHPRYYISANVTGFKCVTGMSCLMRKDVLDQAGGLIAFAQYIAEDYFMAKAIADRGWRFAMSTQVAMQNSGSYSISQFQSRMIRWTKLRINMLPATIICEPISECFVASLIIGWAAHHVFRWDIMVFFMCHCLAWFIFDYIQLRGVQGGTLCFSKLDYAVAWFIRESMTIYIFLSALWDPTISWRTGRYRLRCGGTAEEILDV
The test can be described thus: GCS enzyme inhibition assay (A549 cell lysate, NBD C6-ceramide, HPLC fluorescence). In kind it is biochemical. The note with it: inhibitory activity against GCS, 37° C., 90 minutes. In outline:
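A549 cell lysate (50 mM HEPES pH 7.3) served as GCS source; reactions ran 90 min at 37° C, were stopped with chloroform/methanol and lipids extracted. Activity taken as GlcCer/(Cer+GlcCer) peak area, normalised between DMSO and ibiglustat controls.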

Usually IC50 stands for the concentration that gives 50% inhibition. As for `COc1ccc(-c2ccc3c(c2)OCC(C)(C)C3NC(=O)O[C@@H]2CN3CCC2CC3)c(OC)n1` (stereo partly drawn) [Example 129, (S)-quinuclidin-3-yl (7-(2,6-dimethoxypyridin-3-yl)-3,3-dimethylchroman-4-yl)carbamate], the IC50 in test [1] turned out to be 4.56 nM; in test [2] it was 1.15 nM.

`CC1(C)COc2cc(-c3ccc4ccccc4c3)ccc2C1NC(=O)O[C@@H]1CN2CCC1CC2` (stereo partly drawn) [Example 130, (S)-quinuclidin-3-yl (3,3-dimethyl-7-(naphthalen-2-yl)chroman-4-yl)carbamate]: the values for the IC50 in test [1] and in test [2] were 1.4 nM and 0.71 nM, respectively.

For the compound `CC1(C)COc2cc(-c3cccc4ccccc34)ccc2C1NC(=O)O[C@@H]1CN2CCC1CC2` (stereo partly drawn) [Example 131, (S)-quinuclidin-3-yl (3,3-dimethyl-7-(naphthalen-1-yl)chroman-4-yl)carbamate], the half-inhibitory concentration (IC50) in test [1] was 1.21 nM; in test [2], 1.02 nM.

In the case of `CC1(C)COc2cc(-c3ccc4ncccc4c3)ccc2C1NC(=O)O[C@@H]1CN2CCC1CC2` (stereo partly drawn) [Example 132, (S)-quinuclidin-3-yl (3,3-dimethyl-7-(quinolin-6-yl)chroman-4-yl)carbamate], the IC50 in test [1] was 8.95 nM; in test [2] it was 1.55 nM.

As for `CCOc1c(C)cc(-c2ccc3c(c2)OCC(C)(C)C3NC(=O)O[C@@H]2CN3CCC2CC3)cc1C` (stereo partly drawn) [Example 133, (S)-quinuclidin-3-yl (7-(4-ethoxy-3,5-dimethylphenyl)-3,3-dimethylchroman-4-yl)carbamate], the half-maximal inhibitory concentration (IC50) in test [1] worked out at 0.1 nM; in test [2], 1.35 nM.

For the compound `CCOc1cc(-c2ccc3c(c2)OCC(C)(C)C3NC(=O)O[C@@H]2CN3CCC2CC3)c(Cl)cc1Cl` (stereo partly drawn) [Example 134, (S)-quinuclidin-3-yl (7-(2,4-dichloro-5-ethoxyphenyl)-3,3-dimethylchroman-4-yl)carbamate], the IC50 in test [1] turned out to be 12.7 nM; in test [2] it was 2.83 nM.

As to `CC(C)Oc1ccc(F)c(-c2ccc3c(c2)OCC(C)(C)C3NC(=O)O[C@@H]2CN3CCC2CC3)c1` (stereo partly drawn) [Example 135, (S)-quinuclidin-3-yl (7-(2-fluoro-5-isopropoxyphenyl)-3,3-dimethylchroman-4-yl)carbamate], the concentration for half-maximal inhibition (IC50) amounted to 3.46 nM in test [1] and 0.44 nM in test [2].

Consider `CC(C)Oc1cc(F)cc(-c2ccc3c(c2)OCC(C)(C)C3NC(=O)O[C@@H]2CN3CCC2CC3)c1` (stereo partly drawn) [Example 136, (S)-quinuclidin-3-yl (7-(3-fluoro-5-isopropoxyphenyl)-3,3-dimethylchroman-4-yl)carbamate], for which the IC50 in test [1] is 2.73 nM; in test [2], 0.61 nM.

Regarding `CC1(C)COc2cc(-c3ccc(C(F)(F)F)cc3Cl)ccc2C1NC(=O)O[C@@H]1CN2CCC1CC2` (stereo partly drawn) [Example 137, (S)-quinuclidin-3-yl (7-(2-chloro-4-(trifluoromethyl)phenyl)-3,3-dimethylchroman-4-yl)carbamate], the IC50 in test [1] was determined as 0.11 nM; in test [2], 0.62 nM.

For `CC1(C)COc2cc(-c3cccc(C(F)(F)F)c3Cl)ccc2C1NC(=O)O[C@@H]1CN2CCC1CC2` (stereo partly drawn) [Example 138, (S)-quinuclidin-3-yl (7-(2-chloro-3-(trifluoromethyl)phenyl)-3,3-dimethylchroman-4-yl)carbamate], the results for the IC50 in test [1] and in test [2] were 1.57 nM and 0.63 nM, respectively.

Take `CC1(C)COc2cc(-c3cc(C(F)(F)F)ccc3Cl)ccc2C1NC(=O)O[C@@H]1CN2CCC1CC2` (stereo partly drawn) [Example 139, (S)-quinuclidin-3-yl (7-(2-chloro-5-(trifluoromethyl)phenyl)-3,3-dimethylchroman-4-yl)carbamate]: the IC50 in test [1] is 0.3 nM; in test [2], 0.62 nM.

As for `CCCOc1c(C)cc(-c2ccc3c(c2)OCC(C)(C)C3NC(=O)O[C@@H]2CN3CCC2CC3)cc1C` (stereo partly drawn) [Example 140, (S)-quinuclidin-3-yl (7-(3,5-dimethyl-4-propoxyphenyl)-3,3-dimethylchroman-4-yl)carbamate], the results for the concentration for half-maximal inhibition (IC50) in test [1] and in test [2] were 0.15 nM and 0.88 nM, respectively.

`CC(C)(C)OCc1ccc(-c2ccc3c(c2)OCC(C)(C)C3NC(=O)O[C@@H]2CN3CCC2CC3)cc1` (stereo partly drawn) [Example 141, (S)-quinuclidin-3-yl (7-(4-(tert-butoxymethyl)phenyl)-3,3-dimethylchroman-4-yl)carbamate]: the results for the 50% inhibitory concentration (IC50) in test [1] and in test [2] were 0.2 nM and 0.19 nM, respectively.

Turning to `CC1(C)COc2cc(-c3cc(OC(F)(F)F)ccc3Cl)ccc2C1NC(=O)O[C@@H]1CN2CCC1CC2` (stereo partly drawn) [Example 142, (S)-quinuclidin-3-yl (7-(2-chloro-5-(trifluoromethoxy)phenyl)-3,3-dimethylchroman-4-yl)carbamate], the concentration for half-maximal inhibition (IC50) was determined as 0.19 nM in test [1] and 0.67 nM in test [2].

As for `CCCCOc1cccc(F)c1-c1ccc2c(c1)OCC(C)(C)C2NC(=O)O[C@@H]1CN2CCC1CC2` (stereo partly drawn) [Example 143, (S)-quinuclidin-3-yl (7-(2-butoxy-6-fluorophenyl)-3,3-dimethylchroman-4-yl)carbamate], the half-inhibitory concentration (IC50) in test [1] turned out to be 1.46 nM; in test [2], 0.78 nM.

As for `CC1(C)COc2cc(-c3ccc(OCC(F)(F)F)nc3)ccc2C1NC(=O)O[C@@H]1CN2CCC1CC2` (stereo partly drawn) [Example 144, (S)-quinuclidin-3-yl (3,3-dimethyl-7-(6-(2,2,2-trifluoroethoxy)pyridin-3-yl)chroman-4-yl)carbamate], the IC50 in test [1] came out at 1.2 nM; in test [2], 0.17 nM.

Turning to `COc1ccc2cc(-c3ccc4c(c3)OCC(C)(C)C4NC(=O)O[C@@H]3CN4CCC3CC4)ccc2c1` (stereo partly drawn) [Example 145, (S)-quinuclidin-3-yl (7-(6-methoxynaphthalen-2-yl)-3,3-dimethylchroman-4-yl)carbamate], the half-maximal inhibitory concentration (IC50) in test [1] stood at 0.08 nM; in test [2] it was 0.69 nM.

As for `CCOc1ccc(-c2ccc3c(c2)OCC(C)(C)C3NC(=O)O[C@@H]2CN3CCC2CC3)cc1C(F)(F)F` (stereo partly drawn) [Example 146, (S)-quinuclidin-3-yl (7-(4-ethoxy-3-(trifluoromethyl)phenyl)-3,3-dimethylchroman-4-yl)carbamate], the IC50 is 2.35 nM in test [1] and 0.98 nM in test [2].

In the case of `CC1(C)COc2cc(-c3coc4ccccc34)ccc2C1NC(=O)O[C@@H]1CN2CCC1CC2` (stereo partly drawn) [Example 147, (S)-quinuclidin-3-yl (7-(benzofuran-3-yl)-3,3-dimethylchroman-4-yl)carbamate], the IC50 turned out to be 1 nM in test [1] and 0.4 nM in test [2].

With `CN(C)c1cccc(-c2ccc3c(c2)OCC(C)(C)C3NC(=O)O[C@@H]2CN3CCC2CC3)c1` (stereo partly drawn) [Example 148, (S)-quinuclidin-3-yl (7-(3-(dimethylamino)phenyl)-3,3-dimethylchroman-4-yl)carbamate], the IC50 in test [1] was 0.03 nM; in test [2] it was 0.74 nM.

For `CC1(C)COc2cc(-c3ccc4c(c3)OC(F)(F)O4)ccc2C1NC(=O)O[C@@H]1CN2CCC1CC2` (stereo partly drawn) [Example 149, (S)-quinuclidin-3-yl (7-(2,2-difluorobenzo[d][1,3]dioxol-5-yl)-3,3-dimethylchroman-4-yl)carbamate], the IC50 was 0.03 nM in test [1] and 0.41 nM in test [2].

As to `CC1(C)COc2cc(-c3cc(Cl)ccc3Cl)ccc2C1NC(=O)O[C@@H]1CN2CCC1CC2` (stereo partly drawn) [Example 150, (S)-quinuclidin-3-yl (7-(2,5-dichlorophenyl)-3,3-dimethylchroman-4-yl)carbamate], the IC50 was determined as 0.4 nM in test [1] and 0.72 nM in test [2].
